Where a name gives a salt, the structure may show the parent alone. Where a SMILES comes first, the peptide text is derived from it. The star is where a group is joined. Cbz = O=C(OCc1ccccc1)*
What follows are compounds tested on THP-1-HMGB1-Lucia cells (assay: TBZ-induced necroptosis screening by HMGB1-luciferase release). Conditions: 20 μM compound with TBZ, 8 h; TBZ alone = 100, DPBS = 0; read-out: % Inhibition (luciferase activity relative to TBZ-treated supernatant).
Format: cell-based, human
Description: To identify potential inhibitors of the necroptosis pathway targeting MLKL or the process of p-MLKL pore formation on the membrane, we screened a library of 2150 compounds, including FDA-approved drugs and those in phase 1–3 clinical trials, using THP-1-HMGB1-Lucia™ cells expressing the HMGB1-luciferase fusion protein. The cells were treated with a necroptosis-inducing mixture containing TNF-α, BV6, and Z-VAD-FMK (TBZ) in addition to the compound library (Fig. 1A). The supernatants were harvested to measure luciferase activities for necroptosis. The luciferase activities of cell supernatants treated with TBZ alone were considered as the maximum release (100%) of HMGB1-luciferase. NEC-1, a known RIP1 inhibitor used in both humans and mice, was used as a positive control. […] Next, we performed a propidium iodide (PI) uptake assay to exclude cytotoxic compounds using THP-1 cells. Then, we selected candidate molecules that were arbitrarily less than 30% of those treated with TBZ. […] Next, the inhibition levels of p-MLKL were tested to select MLKL-targeting molecules (Figs. 1C and S1A). Compounds that reduced p-MLKL levels to less than 30% of TBZ-treated controls were considered as potential inhibitors of MLKL phosphorylation. Conversely, compounds that maintained p-MLKL levels above 70% were selected because they are presumed to prevent the formation of pores in the plasma membrane by interfering with oligomerization.
A clinical chemical library containing 2150 items (Korea Chemical Bank, South Korea), under phase 1–3 clinical trials, including FDA-approved drugs, was used to screen for necroptosis inhibitors. Each chemical was dissolved in DMSO and diluted to 20 μM in DPBS for treatment.
THP-1-HMGB1-Lucia^TM cells were pretreated with the pan-caspase inhibitor Z-VAD-FMK (50 μM, tlrl-vad, InvivoGen) and each chemical for 1 h, and followed by TNF-α (100 ng/mL, TNF0501, NKMAXBio, Seongnam, S. Korea) and Smac mimetic BV6 (10 μM, B1332-5, Biovision, Santa Clara, CA, USA), termed TBZ mixture, were added for necroptosis screening. The RIP1 inhibitor, NEC-1 (1846, Biovision), and MLKL inhibitor, NSA (432531-71-0, Sigma-Aldrich, St. Louis, MO, USA), were used as controls. The cell supernatant was harvested to measure HMGB1 levels using a luciferase assay kit (E1500, Promega, Madison, WI, USA) by a luminometer (Centro XS3 LB 960, Berthold Technologies, Bad Wildbad, Germany). The inhibition of necroptosis (%) was calculated as: (sample-treated data – medium-only data) × 100/(TBZ-treated data – medium-only data). APO [STK088477, (6aS)-6-methyl-5,6,6a,7-tetrahydro-4H-dibenzo[de,g]quinoline-10,11-diol, Vitas-M Laboratory, Hong Kong] was stored at −70 °C after aliquoting with DMSO. APO was used after dilution in DPBS. APO is susceptible to auto-oxidation in solution in the presence of light and air. DPBS containing 5 mM DTT was used for Re-APO. Ox-APO was prepared by incubating APO in DPBS at 25 °C for 24 h in the presence of light and air, followed by removal of any precipitate by filtration through 0.2 μm.

| SMILES | activity [%] |
| --- | --- |
| CN1C(=O)C(Cc2c[nH]c3ccccc23)NC1=S (stereo not drawn) [Necrostatin-1] | 1.2 |
| CC(C)C[C@@H](C=O)NC(=O)[C@H](CC(C)C)NC(=O)[C@H](CC(C)C)NC(=O)OCc1ccccc1 [S6, Z-Leu-Leu-Leu-al] (Cbz-Leu-Leu-Leu-aldehyde) | 7.5 |
| O=C(Nc1ccc(S(=O)(=O)C(F)(F)F)cc1)C1=CCN(c2ncccc2C(F)(F)F)CC1 [S7, A 784168] | 4.2 |
| COc1ccc(CNc2nc(N(CCO)CCO)nc3c2ncn3C(C)C)cc1 [S12, CVT-313] | 4.7 |
| CC(=O)c1ccc(NC2=C(Cl)C(=O)c3ccccc3C2=O)cc1 [S21, NQ301] | 4.1 |
| CC(C)c1onc(-c2c(Cl)cccc2Cl)c1COc1ccc(/C=C/c2cccc(C(=O)O)c2)c(Cl)c1 [S27, GW4064] | 9.2 |
| COc1ccc(C(c2c(O)c3ccccc3oc2=O)c2c(O)c3ccccc3oc2=O)cc1CSc1ccccn1 [S29, STK529529] | 2.8 |
| Cc1ccccc1N(C)C(=O)c1ccc([S+]([O-])c2nccs2)c([N+](=O)[O-])c1 (stereo not drawn) [S32, SB 268262] | 0 |
| COc1ccc(C(c2c(O)c3ccccc3oc2=O)c2c(O)c3ccccc3oc2=O)cc1Cn1nc(C)c([N+](=O)[O-])c1C [S33, STK528708] | 0.1 |
| COc1ccc(CNC(=O)Nc2ncc([N+](=O)[O-])s2)cc1 [S36, AR-A014418] | 10.8 |
| O=c1[nH]c2ccc(Cl)cc2c(N[C@@H]2CN3CCC2CC3)c1-c1nc2ccccc2[nH]1 [S45, CHIR 124] | 6.5 |
| Nc1ncnc2c1c(I)cn2[C@@H]1O[C@H](CO)[C@@H](O)[C@H]1O [S47, 5-Iodotubercidin] | 4.9 |
| O=C1/C(=C/c2ccccc2F)CNC/C1=C\c1ccccc1F [S49, EF-24] | 10.2 |
| O=S(=O)(c1ccccc1)N(CC(F)(F)F)c1ccc(C(O)(C(F)(F)F)C(F)(F)F)cc1 [S52, T0901317] | 7.2 |
| COc1ccc(CN2CCN(C(c3ccc(F)cc3)c3ccc(F)cc3)CC2)c(OC)c1OC [S64, Lomerizine hydrochloride] | 5.3 |

Same assay, conditions: Homo sapiens, 8 h, read-out: % Inhibition (luciferase activity relative to TBZ-treated supernatant)

| SMILES | activity at 20 µM [%] |
| --- | --- |
| CC(C)CN(C[C@@H](O)[C@H](Cc1ccccc1)NC(=O)O[C@H]1CO[C@H]2OCC[C@H]21)S(=O)(=O)c1ccc(N)cc1 [S23, Prezista] | 11.2 |
| C[C@@H]1O[C@@H](O[C@@H]2C=C3CC[C@@H]4[C@H](CC[C@]5(C)[C@@H](c6ccc(=O)oc6)CC[C@]45O)[C@@]3(C)CC2)[C@H](O)[C@H](O)[C@H]1O [S48, Proscillaridin] | 6.8 |
| COc1cccc2c1C(=O)c1c(O)c3c(c(O)c1C2=O)C[C@@](O)(C(C)=O)C[C@@H]3O[C@H]1C[C@H](N)[C@H](O)[C@H](C)O1 [S61, Daunorubicin] | 6 |

Same assay, conditions: Homo sapiens; 20 μM compound with TBZ, 8 h; TBZ alone = 100, DPBS = 0; read-out: % Inhibition (luciferase activity relative to TBZ-treated supernatant)

| SMILES | activity at 20 µM [%] |
| --- | --- |
| O=c1ncn2nc(Sc3ccc(F)cc3F)ccc2c1-c1c(Cl)cccc1Cl [S2, Neflamapimod] | 6.8 |
| CCc1c(Cl)c(O)c(Cl)c(O)c1C(=O)O[C@H]1[C@H](O)[C@H](OC)[C@H](OC/C2=C\C=C\C[C@H](O)/C(C)=C/[C@H](CC)[C@@H](O[C@@H]3OC(C)(C)[C@@H](OC(=O)C(C)C)[C@H](O)[C@@H]3O)/C(C)=C/C(C)=C/C[C@@H]([C@@H](C)O)OC2=O)O[C@@H]1C [S5, Fidaxomicin] | 5.9 |
| COC(=O)[C@]12CCC(C)(C)C[C@H]1[C@H]1C(=O)C=C3[C@@]4(C)C=C(C#N)C(=O)C(C)(C)[C@@H]4CC[C@@]3(C)[C@]1(C)CC2 [S8, Bardoxolone methyl] | 0 |
| CO[C@H]1C[C@@H]2CC[C@@H](C)[C@@](O)(O2)C(=O)C(=O)N2CCCC[C@H]2C(=O)O[C@H]([C@H](C)C[C@@H]2CC[C@@H](OC(=O)C(C)(CO)CO)[C@H](OC)C2)CC(=O)[C@H](C)/C=C(\C)[C@@H](O)[C@@H](OC)C(=O)[C@H](C)C[C@H](C)/C=C/C=C/C=C/1C [S9, Temsirolimus] | 19 |
| CC[C@H]1CN2CCc3cc(OC)c(OC)cc3[C@@H]2C[C@@H]1C[C@H]1NCCc2cc(OC)c(OC)cc21 [S13, Emetine dihydrochloride] | 3.3 |
| COc1cc2nccc(Oc3ccc(NC(=O)C4(C(=O)Nc5ccc(F)cc5)CC4)cc3)c2cc1OC [S14, Cabozantinib] | 0.7 |
| Cc1ccc(F)c(NC(=O)Nc2ccc(-c3cccc4[nH]nc(N)c34)cc2)c1 [S20, Linifanib] | 0 |
| CN1CCN(c2nc(C3=C(c4c[nH]c5ccccc45)C(=O)NC3=O)c3ccccc3n2)CC1 [S22, Sotrastaurin] | 4.7 |
| CC(=O)[C@@]1(O)CC[C@H]2[C@@H]3CCC4=CC(=O)CCC4=C3[C@@H](c3ccc(N(C)C)cc3)C[C@@]21C [S24, Ulipristal] | 14 |
| C=C(CC)C(=O)c1ccc(OCC(=O)O)c(Cl)c1Cl [S26, Ethacrynic acid] | 3 |
| CCCS(=O)(=O)Nc1ccc(F)c(C(=O)c2c[nH]c3ncc(-c4ccc(Cl)cc4)cc23)c1F [S30, Vemurafenib] | 6.4 |
| CC1(C)CNc2cc(NC(=O)c3cccnc3NCc3ccncc3)ccc21 [S37, Motesanib] | 9.4 |
| O=C(NC1CCNCC1)c1[nH]ncc1NC(=O)c1c(Cl)cccc1Cl [S39, AT7519] | 19.5 |
| O=C(O)Cc1cccc(OCCCN(Cc2cccc(C(F)(F)F)c2Cl)CC(c2ccccc2)c2ccccc2)c1 [S40, GW3965] | 11.6 |
| Cc1cc(SCc2sc(-c3ccc(C(F)(F)F)cc3)nc2C)ccc1OCC(=O)O [S41, GW 501516] | 9.1 |
| CNCc1ccc(-c2[nH]c3cc(F)cc4c3c2CCNC4=O)cc1 [S42, Rucaparib] | 9.1 |
| N#CC1(c2ccc(NC(=O)c3cccnc3NCc3ccncc3)cc2)CCCC1 [S43, Apatinib] | 3.4 |
| CC(C)[C@H](CO)Nc1nc(Nc2cccc(Cl)c2)c2ncn(C(C)C)c2n1 [S44, Purvalanol A] | 3.8 |
| O=C(Nc1cccc2c(=O)cc(-c3nnn[nH]3)oc12)c1ccc(OCCCCc2ccccc2)cc1 [S50, Pranlukast] | 10.9 |
| Cc1ccc(-n2nc(C(C)(C)C)cc2NC(=O)Nc2ccc(OCCN3CCOCC3)c3ccccc23)cc1 [S51, Doramapimod] | 3.9 |
| C#C[C@]1(O)CC[C@H]2[C@@H]3CCc4cc(OC5CCCC5)ccc4[C@H]3CC[C@@]21C [S54, Quinestrol] | 8.2 |
| Nc1ccc2cc3ccc(N)cc3nc2c1 [S55, Proflavine hemisulfate] | 3.5 |
| CO[C@H]1C[C@@H]2CC[C@@H](C)[C@@](O)(O2)C(=O)C(=O)N2CCCC[C@H]2C(=O)O[C@H]([C@H](C)C[C@@H]2CC[C@@H](O)[C@H](OC)C2)CC(=O)[C@H](C)/C=C(\C)[C@@H](O)[C@@H](OC)C(=O)[C@H](C)C[C@H](C)/C=C/C=C/C=C/1C [S56, Sirolimus] | 0.3 |
| COc1cccc2c1C(=O)c1c(O)c3c(c(O)c1C2=O)C[C@@](O)(C(=O)CO)C[C@@H]3O[C@H]1C[C@H](N)[C@H](O[C@@H]2CCCCO2)[C@H](C)O1 [S57, Pirarubicin] | 6.4 |
| NC(CO)(CO)CO [S59, Trometamol] | 11 |
| COC(=O)C1=C(C)NC(C)=C(C(=O)OCCN(C)Cc2ccccc2)C1c1cccc([N+](=O)[O-])c1 (stereo not drawn) [S60, Nicardipine hydrochloride] | 3.8 |
| COCCOC(=O)C1=C(C)NC(C)=C(C(=O)OC/C=C/c2ccccc2)C1c1cccc([N+](=O)[O-])c1 (stereo not drawn) [S63, Cilnidipine] | 11 |
| CC[C@@]1(O)C(=O)OCc2c1cc1n(c2=O)Cc2cc3c(CN(C)C)c(O)ccc3nc2-1 [S65, Topotecan hydrochloride] | 5.2 |
| COc1cccc2c1C(=O)c1c(O)c3c(c(O)c1C2=O)C[C@@](O)(C(=O)CO)C[C@@H]3O[C@H]1C[C@H](N)[C@H](O)[C@H](C)O1 [S66, Doxorubicin] | 8.6 |
| O=S(=O)(c1cccc2cnccc12)N1CCCNCC1 [S68, Fasudil hydrochloride] | 6 |
